Measured values published in ChEMBL document CHEMBL6153108, “Otitiglycomycins A and B: Glycolipids from the Strain Nocardia otitidiscavarum 20S-13 with Antiviral Activity against Zika Virus” (J Nat Prod, 2025).
Activity calls are given as the source filed them. The rule behind the calls is not given here.

Assays:
Vero C1008 = experiment: Cytotoxicity against african green monkey Vero E6 cells assessed as cell viability at 100 uM incubated for 48 hrs by MTS assay; assay type: toxicity, cell-based; details: chlorocebus sabaeus, vero c1008, 48 h
Zika virus [1] = experiment: Antiviral activity against ZIKV MR766NIID expressing GFP infected in african green monkey Vero E6 assessed as reduction in viral replication incubated for 24 hrs by flow cytometry assay; assay type: functional, organism-based; details: for Activity: dose 0.3-100 µM
[2] = Cytotoxicity against african green monkey Vero E6 cells assessed as cell viability incubated for 48 hrs by MTS assay; assay type: toxicity, cell-based, Vero C1008; details: African green monkey (Chlorocebus sabaeus)
Zika virus [3] = experiment: Antiviral activity against ZIKV MR766NIID expressing GFP infected in african green monkey Vero E6 assessed as reduction in viral replication at 50 uM incubated for 24 hrs by flow cytometry assay relative to control; assay type: functional; parameters: scale not given: the % may be the effect or the level left
Zika virus [4] = experiment: Antiviral activity against ZIKV MR766NIID expressing GFP infected in african green monkey Vero E6 assessed as reduction in viral replication measured after 24 hrs by flow cytometry assay; assay type: functional; parameters: scale not given: the % may be the effect or the level left
Zika virus [5] = experiment: Antiviral activity against ZIKV MR766NIID expressing GFP infected in african green monkey Vero E6 assessed as reduction in viral replication preincubated for 2 hrs and measured after 22 hrs by flow cytometry assay; assay type: functional, organism-based; details: time 24.0 hrs
Zika virus [6] = experiment: Antiviral activity against ZIKV MR766NIID expressing GFP infected in african green monkey Vero E6 assessed as neutralization of viral infection at 25 uM compound preincubated with virus for 2 hrs followed by 0.7 uM compound addition and measured after 2 hrs by flow cytometry analysis relative to control; assay type: functional, organism-based; details: time 4.0 hrs
Zika virus [7] = experiment: Antiviral activity against ZIKV MR766NIID expressing GFP infected in african green monkey Vero E6 assessed as reduction in virus attachment to cell surface at 25 uM incubated for 1 hr by RT-qPCR analysis relative to control; assay type: functional; parameters: scale not given: the % may be the effect or the level left
[8] = Selectivity index, ratio of IC50 for cytotoxicity against african green monkey Vero E6 cells to IC50 for ZIKV MR766NIID expressing GFP infected in african green monkey; assay type: toxicity, cell-based; details: read-out: Ratio IC50

| Compound | Activity (Vero C1008) | Activity (Zika virus [1]) | IC50 at 48 h [2] | Activity (Zika virus [3]) | Activity (Zika virus [4]) | Activity (Zika virus [5]) | IC50 (Zika virus [1]; Vero C1008, 24 h) | Activity (Zika virus [6]) | Activity (Zika virus [7]) | selectivity ratio [8] |
| --- | --- | --- | --- | --- | --- | --- | --- | --- | --- | --- |
| CCCCCCCCCCCCCCC(=O)O[C@H]1[C@@H](O[C@H](CO)C(=O)O)O[C@H](CO)[C@@H](O)[C@@H]1O | Non-toxic | inactive | > 100 µM | – | – | – | – | – | – | – |
| CCCCCCCCCCCCCCCCCC(=O)O[C@H]1[C@@H](O[C@H](CO)C(=O)O)O[C@H](CO)[C@@H](O)[C@@H]1OC(=O)C(C)C | Non-toxic | Dose-dependent-effect | > 100 µM | 100% | 100% | inactive | 10.5 µM | Active | 90% | > 10 |
